From US20090098050A1, “CALCIUM BINDING PEPTIDES” (THE REGENTS OF THE UNVERSITY OF CALIFORNIA, priority 2005, published 2009)
No end group written: not given here.

Experiments:
[1] = Binding of fluorescein-labeled peptides to hydroxyapatite nanocrystals (Langmuir isotherm); conditions: Langmuir fit; for KA, affinity constant of the peptide for the hydroxyapatite surface: fluorescein-labeled peptide 0-100 μM, 0.3 mg hydroxyapatite, ten minutes
Experimental: FIG. 1: Binding affinities of DSS and DSS variant peptides for hydroxyapatite and tooth surfaces. A-C. Fluorescein-labeled peptides at concentrations ranging from 0-100 μM were incubated with 0.3 mg of hydroxyapatite nanocrystals (specific surface area=100 m^2/g) for ten minutes, followed by removal of the hydroxyapatite by centrifugation. The amount of peptide in the mixture before and after hydroxyapatite removal was determined by Abs480. Isotherms were plotted and fit to the Langmuir equation to extract values for KA, a constant reflecting the affinity of the peptide for the hydroxyapatite surface. D. Sagitally sectioned human teeth were incubated with 12.5 μM 5(6) carboxyfluorescein-labeled 6DSS peptide for ten minutes, followed by rinsing. Peptide binding to tooth surfaces was visualized by Confocal Laser Scanning Microscopy (CLSM) using blue laser illumination (λA=488 nm) and a FITC emission filter. Left side, light colored region: dentin. Right side, dark colored region: enamel.
Four DSS peptides containing two (2DSS, SEQ ID NO:12), four (4DSS, SEQ ID NO:13), six (6DSS, SEQ ID NO:14), or eight(8DSS, SEQ ID NO:15) Asp-Ser-Ser (DSS) repeats were generated. Peptides were labeled with fluorescein, and various concentrations of the labeled peptides (0-100 μM) were mixed with a fixed amount (0.3 mg) of hydroxyapatite nanocrystals having a specific surface area of 100 m^2/g (Berkeley Advanced Biomaterials, Inc.). Samples were incubated for ten minutes, followed by removal of the hydroxyapatite by centrifugation. The amount of peptide in the mixture was measured both before and after hydroxyapatite removal by spectroscopic absorbance at 480 nm (the peak absorbance of the fluorescein label). The amount of peptide bound was calculated by comparing the ratio of the final (Af) and initial (Ai) absorbances to the initial concentration (P0) [Pbound=[…]]. Plots were generated illustrating the amount of peptide bound per m^2 of hydroxyapatite surface area versus concentration of unbound peptide at equilibrium. The resulting isotherms were fit to the Langmuir isotherm (x/m=(KANMaxCeq)/(1+KACeq)) (Calis 1995), which describes the binding activity of a molecule in terms of a combination of binding affinity (KA) and avidity (NMax). KA represents the affinity constant of the peptide for the hydroxyapatite surface. In this equation, x/m represents the molar amount of peptide bound per unit of hydroxyapatite surface area, NMax represents the maximum surface concentration (mol/m^2), and Ceq represents the molar concentration of unbound peptide at equilibrium. The Langmuir isotherm describes the binding of molecules to surfaces with the conditions that 1) all binding sites have the same affinity for the peptide, and 2) the peptide will form a monolayer on the surface but cannot accumulate to higher levels. The excellent fit of the Langmuir isotherm to the experimental data validates these conditions, and these affinity constants were used for comparisons between peptides.

[2] = Preferential binding to carious lesions in teeth (CLSM); design: species or system human; conditions: labeled peptide, settings optimized per sample
Experimental: FIG. 9: Fluorescence micrographs showing specific binding of DSS peptides and variants to carious lesions in teeth. Adult human teeth were exposed to 12.5 uM 5(6)-carboxyfluorescein-labeled peptide without demineralization, washed extensively, and imaged by CLSM. Microscope and camera settings were optimized separately for each sample. […] White traces on the right side of each panel identify the position of the tooth surface, while arrows indicate the position of the stained lesion.
Sections of human teeth containing obvious carious lesions, which consist of demineralized enamel, were polished and exposed to 5(6)-carboxyfluorescein-labeled DSS peptides and variants using the protocol described in Example 2. The sections were washed extensively and imaged by CLSM using blue laser illumination (λ=488 nm) and a FITC emission filter, with microscope and camera settings adjusted for each sample to optimize the signal detected from each peptide. The images were examined to identify the relative levels of peptide binding in healthy versus carious tissue. […] Given their ability to remineralize at sites of enamel degradation (Example 6), they can also be used to initiate remineralization at sites of enamel degradation such as caries or injury sites without causing inappropriate nucleation on healthy tissue surfaces.

[3] = Tissue specific binding of DSS peptides and variants in human teeth (CLSM); conditions: 12.5 μM labeled peptide; for Tissue binding pattern in healthy tooth section: nondemineralized teeth
Experimental: FIG. 8: Fluorescence micrographs showing tissue specificity in the binding of DSS peptides and variants. Adult human teeth were exposed to 12.5 μM 5(6)-carboxyfluorescein-labeled peptide without demineralization, washed extensively, and imaged by CLSM. For each section, multiple scans were collected and assembled in an automated mode to generate panels of images representing an area of 13×13 mm, sufficient in most cases to encompass the whole section. The peptides used for each section are labeled beneath each panel, and within each panel the tooth is oriented with the root toward the top of the image and the crown toward the bottom. Tissue layers are labeled as follows: RTD=Root Tip Dentin; CPD=Circumpulpal Dentin; MD=Mantle Dentin; P=Pulp Cavity Wall; DEJ=Dentin-Enamel Junction; E=Enamel; BE=Basal Enamel; CE=Cortical Enamel; CL=Carious Lesion; PB=Periodontal Bone.
In order to investigate the tissue specificity of DSS peptide binding to tooth tissue, sections of human teeth were exposed to DSS peptides and variants, then imaged by CLSM as described in Example 2. The peptides utilized for these experiments were 8DSS, 8ASS, 8DAA, 8NAA, 4DSS, 4ESS, 4NSS, 4DTT, 4ETT, 4NTT, and 6DSS. Sagittal sections of human teeth extracted during normal clinical practice were polished and then incubated for ten minutes in a solution of the appropriate 5(6) carboxyfluorescein-labeled peptide (12.5 μM) containing 10 mM NaCl and 50 mM HEPES, pH 7.0. Control samples were prepared without peptide. Samples were washed extensively after treatment and imaged by CLSM using blue laser illumination (λ=488 nm) and a FITC emission filter, with identical camera and microscope settings for each sample. For each section, multiple scans were collected and assembled in an automated mode to generate panels of images representing an area of 13×13 mm, sufficient in most cases to encompass the whole section. […] Significant binding was also seen to the edges of the pulp cavity.

Substance	KA, affinity constant of the peptide for the hydroxyapatite surface [1]	NMax, maximum surface concentration (available binding sites on HA surface) [1]	Specificity of binding to carious lesions versus surrounding healthy enamel [2]	Strength of staining of carious lesions [2]	Tissue binding pattern in healthy tooth section [3]	Binding to fragment of periodontal bone attached to the sample [3]
2DSS: peptide containing two Asp-Ser-Ser (DSS) repeats, SEQ ID NO:12 (DSSDSS; calcium binding peptide containing two DSS repeats, 2DSS)	57,000 M^−1	–	–	–	–	–
4DSPS: partially phosphorylated four repeat DSS peptide, SEQ ID NO:25 (DSSDSSDSSDSS; also: partially phosphorylated, sites not given here)	83,000 M^−1	1.2×10^−7 mol/m^2	–	–	–	–
4DSS: peptide containing four Asp-Ser-Ser (DSS) repeats, SEQ ID NO:13 (DSSDSSDSSDSS; calcium binding peptide containing four DSS repeats, 4DSS, (DSS)-4)	94,000 M^−1	5.8×10^−8 mol/m^2	highly specific binding to carious lesions	exceptionally strong staining of carious lesions	bound primarily to the mantle dentin	–
4DTT: four repeat peptide containing more sterically hindered hydroxyl groups at second and third positions, SEQ. ID NO. 17 (DTTDTTDTTDTT; variant DSS four repeat peptide containing more sterically hindered hydroxyl groups at second and third positions, 4DTT)	161,000 M^−1	–	–	–	binding patterns similar to those of 4DSS and 4ESS, though at sharply reduced levels	–
4ESS: four repeat peptide containing a longer sidechain at the first position, SEQ. ID NO. 16 (ESSESSESSESS; variant DSS four repeat peptide containing longer sidechain at first position, 4ESS)	81,000 M^−1	–	highly specific binding to carious lesions	exceptionally strong staining of carious lesions	–	–
4ETT: four repeat peptide containing more sterically hindered hydroxyl groups at second and third positions, SEQ. ID NO. 19 (ETTETTETTETT; variant DSS four repeat peptide containing more sterically hindered hydroxyl groups at second and third positions, 4ETT)	61,000 M^−1	–	highly specific binding to carious lesions	–	binding patterns similar to those of 4DSS and 4ESS, though at sharply reduced levels	–
4NAA: label printed only in b88, not defined; probably a misprint (NAANAANAANAA; variant DSS four repeat peptide lacking hydroxyl group at seond and third positions, 4NAA)	–	–	–	exceptionally strong staining of carious lesions	–	–
4NSS: four repeat peptide lacking a charged group at the first position, SEQ. ID NO. 20 (NSSNSSNSSNSS; variant DSS four repeat peptide lacking negatively charged group at first position, 4NSS)	41,000 M^−1	–	highly specific binding to carious lesions	–	–	–
4NTT: four repeat peptide containing more sterically hindered hydroxyl groups at second and third positions, SEQ. ID NO. 18 (NTTNTTNTTNTT; variant DSS four repeat peptide containing more sterically hindered hydroxyl groups at second and third positions, 4NTT)	18,000 M^−1	–	–	–	very low levels of binding to the healthy tooth tissue	strong binding
8ASS: eight repeat peptide lacking a charged group at the first position, SEQ. ID NO. 21 (ASSASSASSASSASSASSASSASS; variant DSS eight repeat peptide lacking negatively charged group at first position, 8ASS)	170,000 M^−1	–	highly specific binding to carious lesions	exceptionally strong staining of carious lesions	–	–
8DAA: eight repeat peptide lacking hydroxyl groups at the second and third positions, SEQ. ID NO. 22 (DAADAADAADAADAADAADAADAA; variant DSS eight repeat peptide lacking hydroxyl group at seond and third positions, 8DAA)	300,000 M^−1	–	highly specific binding to carious lesions	exceptionally strong staining of carious lesions	primary binding to the root tip dentin and cortical enamel, as well as to the dentin-enamel junction and the pulp cavity wall	–
